The record followed here is patent US11407737B2, “Inhibitors of RAF kinases” (Kinnate Biopharma Inc., priority 2020, dated 2022).

The target in this assay is human RAF1 (Homo sapiens (Human), UniProt P04049). Kind of assay: Protein kinase assay (radiometric 33P-ATP, MEK1 (K97R) substrate), RAF-1. Format: biochemical. As to conditions: human MEK1 (K97R) substrate 3 micromolar, ATP 10 micromolar; 10-dose, 3-fold serial dilution starting at 10 micromolar; read-out: RAF-1 IC50. Summed up: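 Radiometric filter-binding assay with RAF1 and MEK1 (K97R) substrate at 3 micromolar and 10 micromolar final ATP, in HEPES pH 7.5 buffer with 1% DMSO. Reactions ran 2 hr at room temperature with [γ-33P]ATP. IC50 was derived from remaining activity relative to DMSO control.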
human RAF1, sequence (P04049 whole entry): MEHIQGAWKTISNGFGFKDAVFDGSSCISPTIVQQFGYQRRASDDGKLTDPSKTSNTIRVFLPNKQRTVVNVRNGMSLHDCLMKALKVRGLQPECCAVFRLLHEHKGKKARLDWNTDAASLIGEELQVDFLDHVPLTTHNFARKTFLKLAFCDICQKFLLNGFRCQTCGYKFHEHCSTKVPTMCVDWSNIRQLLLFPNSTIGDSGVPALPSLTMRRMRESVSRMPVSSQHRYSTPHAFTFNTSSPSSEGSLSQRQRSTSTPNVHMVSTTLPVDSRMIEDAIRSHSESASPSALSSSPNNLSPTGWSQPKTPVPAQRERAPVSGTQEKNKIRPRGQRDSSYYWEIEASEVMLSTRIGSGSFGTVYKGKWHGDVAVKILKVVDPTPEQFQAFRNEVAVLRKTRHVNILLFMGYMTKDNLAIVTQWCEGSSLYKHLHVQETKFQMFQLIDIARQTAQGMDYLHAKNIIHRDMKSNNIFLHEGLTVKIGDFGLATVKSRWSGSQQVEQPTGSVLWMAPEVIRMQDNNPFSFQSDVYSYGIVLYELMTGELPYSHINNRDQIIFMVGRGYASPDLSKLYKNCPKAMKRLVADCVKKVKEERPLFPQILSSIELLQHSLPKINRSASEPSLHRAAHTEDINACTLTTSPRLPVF

pIC50: −log10 of the molar value.

Consider `Cc1ccc(NC(=O)N2CC[C@@H](CC(F)(F)F)C2)cc1-c1cc(CO)nc(N2CCOCC2)c1` [Example 60, (3S)—N-[3-[2-(hydroxymethyl)-6-(morpholin-4-yl)pyridin-4-yl]-4-methylphenyl]-3-(2,2,2-trifluoroethyl)pyrrolidine-1-carboxamide], for which the negative logarithm of the IC50 (pIC50) (as a rule, −log10 of the IC50, conventionally taken in molar units) is 8.00 to 9.00.

As for `Cc1ccc(NC(=O)N2CC[C@@H](CC(F)(F)F)C2)cc1-c1cc(C(=O)N2CC(C)(O)C2)nc(N2CCOCC2)c1` [Example 21, (3S)—N-[3-[2-(3-hydroxy-3-methylazetidine-1-carbonyl)-6-(morpholin-4-yl)pyridin-4-yl]-4-methylphenyl]-3-(2,2,2-trifluoroethyl)pyrrolidine-1-carboxamide], the pIC50 is more than 9.00.

As to `Cc1ccc(NC(=O)N2CC[C@@H](CC(F)(F)F)C2)cc1-c1cc(C#CC(C)(C)O)nc(N2CCOCC2)c1` [Example 10, (3S)—N-[3-[2-(3-hydroxy-3-methylbut-1-yn-1-yl)-6-(morpholin-4-yl)pyridin-4-yl]-4-methylphenyl]-3-(2,2,2-trifluoroethyl)pyrrolidine-1-carboxamide], the pIC50 was 8.00 to 9.00. `Cc1ccc(NC(=O)N2CC[C@@H](CC(F)(F)F)C2)cc1-c1cc(-c2ccnc(N)c2)nc(N2CCOCC2)c1` [Example 40, (3S)—N-[3-[2′-amino-6-(morpholin-4-yl)-[2,4′-bipyridin]-4-yl]-4-methylphenyl]-3-(2,2,2-trifluoroethyl)pyrrolidine-1-carboxamide]: the pIC50 was 8.00 to 9.00. In the case of `Cc1ccc(NC(=O)N2CC[C@@H](CC(F)(F)F)C2)cc1-c1cc(-c2ccnc(O)c2)nc(N2CCOCC2)c1` [Example 30, (3S)—N-[3-[2-hydroxy-6-(morpholin-4-yl)-[2,4-bipyridin]-4-yl]-4-methylphenyl]-3-(2,2,2-trifluoroethyl)pyrrolidine-1-carboxamide] it was 8.00 to 9.00; in that of `Cc1cc(F)c(NC(=O)N2CCO[C@H](C(F)(F)F)C2)cc1-c1cc(-c2cnn(C)c2)nc(N2CCOCC2)c1` [Example 67, (2S)—N-{2-fluoro-4-methyl-5-[2-(1-methylpyrazol-4-yl)-6-(morpholin-4-yl)pyridin-4-yl]phenyl}-2-(trifluoromethyl)morpholine-4-carboxamide], more than 9.00; in that of `Cc1ccc(NC(=O)N2CC[C@@H](CC(F)(F)F)C2)cc1-c1cc(/C=C/CO)nc(N2CCOCC2)c1` [Example 23, (3S)—N-(3-[2-[(1E)-3-hydroxyprop-1-en-1-yl]-6-(morpholin-4-yl)pyridin-4-yl]-4-methylphenyl)-3-(2,2,2-trifluoroethyl)pyrrolidine-1-carboxamide], more than 9.00.

As to `Cc1cc(F)c(NC(=O)N2CC=C(CC(F)(F)F)C2)cc1-c1cc(-c2cnn(C)c2)nc(N2CCOCC2)c1` [Example 77, N-{2-fluoro-4-methyl-5-[2-(1-methylpyrazol-4-yl)-6-(morpholin-4-yl)pyridin-4-yl]phenyl}-3-(2,2,2-trifluoroethyl)-2,5-dihydropyrrole-1-carboxamide], the pIC50 was more than 9.00.

Turning to `COc1cc(-c2cc(-c3cc(NC(=O)N4CC[C@@H](CC(F)(F)F)C4)ccc3C)cc(N3CCOCC3)n2)ccn1` [Example 25, (3S)—N-[3-[2-methoxy-6-(morpholin-4-yl)-[2,4-bipyridin]-4-yl]-4-methylphenyl]-3-(2,2,2-trifluoroethyl)pyrrolidine-1-carboxamide], the pIC50 was more than 9.00.

On to `CCc1cc(-c2cc(NC(=O)N3CC[C@@H](CC(F)(F)F)C3)c(F)cc2C)cc(N2CCOCC2)n1` [Example 72, (3S)—N-{5-[2-ethyl-6-(morpholin-4-yl)pyridin-4-yl]-2-fluoro-4-methylphenyl}-3-(2,2,2-trifluoroethyl)pyrrolidine-1-carboxamide], for which the pIC50 was more than 9.00.
